In brackets after ≈: the same amount, converted by molar mass.
Legend:
Assay type in all cases: cell-based
[1] = test system: Aspergillus fumigatus T33439 (ATCC MYA-3626); assay: Fungal MIC Protocol, Aspergillus fumigatus; conditions: Aspergillus fumigatus; 100% growth inhibition at 48 hours; read-out: MIC Aspergillus fumigatus 3626
Experimental: (§1) Fungal MIC Protocol: RPMI/MOPS media (Roswell Park Memorial Institute/3-morpholinopropane-1-sulfonic acid media) is prepared by dissolving 8.4 grams RPMI […] (Sigma cat #R1383), 34.52 grams MOPS buffer (Sigma cat #M3.183) and 2 […] glucose in 900 mL deionized water. The pH is adjusted to 7.0 with NaOH and filter sterilized. 0.1 mL, of a stock spore suspension (or loop from frozen stock) is inoculated to a 75 mL tissue culture flask (Falcon cat #353136) containing 50 mL of Potato Dextrose Agar (PDA, 24 grams PD broth (Fisher cat #DF 0549179), 20 grams agar (Fisher cat #BP 1423500) per liter water). Aspergillus and Fusarium strains are grown at 35° C. and Mucor strains are grown at room temperature for 3-5 days. Spores are harvested by flooding the flask with 5 mL phosphate buffered saline (PBS) pH 7.4+0.1% Tween-20 and several glass beads (Fisher cat #S800243) are added to aid in agitation. The supernatant is removed and the OD530 of a 1:100 dilution is measured. Spores are diluted in RPMI/MOPS to a final OD530 of 0.002 for Aspergillus and an OD530 of 0.005 for Fusarium and Mucor. The final concentration of spores is approximately 2×10^4 cfu/mL. Test compound(s) are diluted to 200 ug/mL in RPMI/MOPS ([…]). Ten (10) serial dilutions are prepared with RPMI/MOPS in a 96-well round bottom plate (Fisher cat #353136). For Mucor strains a sterile flat-bottom 96-well plate is used. 50 μl of compound dilutions in duplicate are added to a sterile 96-well round bottom plate. 50 ul of diluted spores are added to the compound-containing plates. Control wells include 1) compound but no cells and 2) spores but no compound. Mix the plates gently by hand, place in ziplock bags and
(§2) incubate at 35° C. for 48 hours. […]

[2] = test system: Fusarium falciforme FS1 (ATCC MYA-3636); assay: Fungal MIC Protocol, Fusarium falciforme; conditions: Fusarium falciforme; 100% growth inhibition at 48 hours; read-out: MIC Fusarium falciforme 3636
Experimental: as §1, §2

Candida albicans GDH2346 = assay: Candida Minimal Inhibitory Concentration (MIC); conditions: Candida albicans, GDH2346; 50% growth inhibition at 48 hours; read-out: MIC-50 Candida albicans GDH2346
Experimental: Candida Minimal Inhibitory Concentration (MIC): RPMI/MOPS media is prepared by dissolving 8.4 g RPMI 1640, 34.52 g MOPS buffer and 2 g glucose in 900 mL water. The pH is adjusted to 7.0 with NaOH. The total volume is brought to 1 L and the resulting solution is filter sterilized. The Candida stock is streaked on a Yeast extract Peptone Dextrose (YPD) agar plate and grown at 35° C. for isolation of single colonies. Compounds of the disclosure are diluted to 200 μg/mL in RPMI/MOPS (4.8 ul of 10 mg/mL DMSO stock in 240 ul media). Ten (10) 1:2 serial dilutions are prepared in RPMI/MOPS in a 96-well round bottom plate. Fifty (50) μl of compound dilutions are transferred in duplicate to a sterile tissue culture-treated 96-well flat-bottom, black-sided polypropylene plate. A single colony of Candida from the YPD plate is re-suspended in 5 mL phosphate buffered saline (BS) and optical density (OD) at 600 nm is measured. The suspension is adjusted to OD=1.0 and a 1:1000 dilution is prepared in RPMI/MOPS. Fifty (50) ul aliquots of the diluted yeast are added to the plates containing 50 μL of compound to all wells except 12E-H. Control wells include: 12 A-D cells, no compound and 12 E-H no cells, no compound. The plates are mixed gently by hand and placed in Ziplok bags in a 35° C. incubator. The OD600 is measured at 24 and 48 hours.

[3] = test system: Mucor circinelloides 1463(62) (ATCC 26759); assay: Fungal MIC Protocol, Mucor circinelloides (MIC-50); conditions: Mucor circinelloides, ATCC26759; 50% growth inhibition at 48 hours; read-out: MIC-50 Mucorales circinelloides 26579
Experimental: as §1
(§3) incubate at 35° C. for 48 hours. Score the MIC visually (lowest concentration of compound showing >50% growth inhibition) using an inverted mirror.

[4] = test system: Aspergillus flavus AFL1 (ATCC MYA-3631); assay: Fungal MIC Protocol, Aspergillus flavus; conditions: Aspergillus flavus; 100% growth inhibition at 48 hours; read-out: MIC Aspergillus flavus 3631
Experimental: as §1, §2

[5] = test system: Fusarium solani (ATCC 58877); assay: Fungal MIC Protocol, Fusarium solani; conditions: Fusarium solani, ATCC58877; 100% growth inhibition at 48 hours; read-out: MIC Fusarium solani 58877
Experimental: as §1, §2

[6] = test system: Mucor ramosissimus 057718 (ATCC 90286); assay: Fungal MIC Protocol, Mucor ramosissimus (MIC-50); conditions: Mucor ramosissimus, ATCC90286; 50% growth inhibition at 48 hours; read-out: MIC-50 Mucorales ramosissimus 90286
Experimental: as §1, §3

| Structure (SMILES) | MIC [1] [µg/mL] | MIC [2] [µg/mL] | MIC50 (Candida albicans GDH2346) [µg/mL] | MIC50 [3] [µg/mL] | MIC [4] [µg/mL] | MIC [5] [µg/mL] | MIC50 [6] [µg/mL] |
| --- | --- | --- | --- | --- | --- | --- | --- |
| Cn1c(-c2ccc(C3=CCN(C(=N)N)CC3)cc2)nnc1-c1ccc(C2=CCN(C(=N)N)CC2)cc1 [Example 1, 4,4-(4,4-(4-Methyl-4H-1,2,4-triazole-3,5-diyl)bis(4,1-phenylene))bis(5,6-dihydropyridine-1(2H)-carboximidamide)] | < 0.05 | < 0.05 | < 0.2 | 0.2 (≈ 0.415 µM) | 0.1 (≈ 0.208 µM) | 0.78 (≈ 1.62 µM) | 0.78 (≈ 1.62 µM) |
| CCn1c(-c2ccc(C3=CCN(C(=N)N)CC3)cc2)nnc1-c1ccc(C2=CCN(C(=N)N)CC2)cc1 [Example 2, 4,4′-(4,4′-(4-Ethyl-4H-1,2,4-triazole-3,5-diyl)bis(4,1-phenylene)) bis(5,6-dihydropyridine-1(2H)-carboximidamide)] | 0.2 (≈ 0.404 µM) | < 0.1 | < 0.024 | > 100 | < 0.1 | < 0.1 | > 100 |
| CC(C)n1c(-c2ccc(C3=CCN(C(=N)N)CC3)cc2)nnc1-c1ccc(C2=CCN(C(=N)N)CC2)cc1 [Example 3, 4,4′-(4,4′-(4-isopropyl-4H-1,2,4-triazole-3,5-diyl)bis(4,1-phenylene))bis(5,6-dihydropyridine-1 (2H)-carboximidamide)] | < 0.1 | < 0.1 | 0.1 (≈ 0.196 µM) | 0.39 (≈ 0.765 µM) | < 0.1 | < 0.1 | 0.78 (≈ 1.53 µM) |
| N=C(N)N1CC=C(c2ccc(-c3nnc(-c4ccc(C5=CCN(C(=N)N)CC5)cc4)n3C3CCC3)cc2)CC1 [Example 6, 4,4′-(4,4′-(4-Cyclobutyl-4H-1,2,4-triazole-3,5-diyl)bis(4,1-phenylene))bis(5,6-dihydropyridine-1(2H)-carboximidamide)] | 0.2 (≈ 0.383 µM) | < 0.1 | 3.13 (≈ 6 µM) | 0.78 (≈ 1.5 µM) | 0.39 (≈ 0.748 µM) | 0.39 (≈ 0.748 µM) | 1.56 (≈ 2.99 µM) |
| N=C(N)N1CC=C(c2ccc(-c3nnc(-c4ccc(C5=CCN(C(=N)N)CC5)cc4F)n3Cc3ccccc3)cc2)CC1 [Example 7, 4-(4-(4-Benzyl-5-(4-(1-carbamimidoyl-1,2,3,6-tetrahydropyridin-4-yl)-2-fluorophenyl)-4H-1,2,4-triazol-3-yl)phenyl)-5,6-dihydropyridine-1(2H)-carboximidamide] | < 0.1 | < 0.1 | 3.13 (≈ 5.44 µM) | 0.78 (≈ 1.35 µM) | 0.78 (≈ 1.35 µM) | 0.39 (≈ 0.677 µM) | 1.56 (≈ 2.71 µM) |
| Cn1c(-c2ccc(C3=CCN(C(=N)N)CC3)cc2F)nnc1-c1ccc(C2=CCN(C(=N)N)CC2)cc1F [Example 8, 4,4′-(4,4′-(4-Methyl-4H-1,2,4-triazole-3,5-diyl)bis(3-fluoro-4,1-phenylene)) bis(5,6-dihydropyridine-1(2H)-carboximidamide)] | 0.05 (≈ 0.0966 µM) | 0.006 (≈ 0.0116 µM) | 0.1 (≈ 0.193 µM) | 0.2 (≈ 0.386 µM) | 0.05 (≈ 0.0966 µM) | 0.05 (≈ 0.0966 µM) | 0.39 (≈ 0.753 µM) |
| CCOCCOCCn1c(-c2ccc(C3=CCN(C(=N)N)CC3)cc2F)nnc1-c1ccc(C2=CCN(C(=N)N)CC2)cc1F [Example 9, 4,4′-(4,4′-(4-(2-(2-Ethoxyethoxy)ethyl)-4H-1,2,4-triazole-3,5-diyl)bis(3-fluoro-4,1-phenylene))bis(5,6-dihydropyridine-1(2H)-carboximidamide)] | 0.2 (≈ 0.323 µM) | 0.2 (≈ 0.323 µM) | < 0.1 | 3.13 (≈ 5.05 µM) | 0.39 (≈ 0.629 µM) | 0.2 (≈ 0.323 µM) | 3.13 (≈ 5.05 µM) |
| CCn1c(-c2ccc(C3=CCN(C(=N)N)CC3)cc2F)nnc1-c1ccc(C2=CCN(C(=N)N)CC2)cc1F [Example 10, 4,4′-(4,4′-(4-Ethyl-4H-1,2,4-triazole-3,5-diyl)bis(3-fluoro-4,1-phenylene)) bis(5,6-dihydropyridine-1(2H)-carboximidamide)] | < 0.1 | < 0.1 | < 0.1 | 0.78 (≈ 1.47 µM) | < 0.1 | < 0.1 | 1.56 (≈ 2.93 µM) |
| CCCCCCCCn1c(-c2ccc(C3=CCN(C(=N)N)CC3)cc2F)nnc1-c1ccc(C2=CCN(C(=N)N)CC2)cc1F [Example 11, 4,4′-(4,4′-(4-Octyl-4H-1,2,4-triazole-3,5-diyl)bis(3-fluoro-4,1-phenylene))bis(5,6-dihydropyridine-1(2H)-carboximidamide)] | 0.39 (≈ 0.633 µM) | 0.2 (≈ 0.325 µM) | 1.56 (≈ 2.53 µM) | 1.56 (≈ 2.53 µM) | 0.78 (≈ 1.27 µM) | 0.2 (≈ 0.325 µM) | 3.13 (≈ 5.08 µM) |
| N=C(N)N1CC=C(c2ccc(-c3nnc(-c4ccc(C5=CCN(C(=N)N)CC5)cc4F)n3C3CCN(C(=N)N)CC3)c(F)c2)CC1 [Example 12, 4,4′-(4,4′-(4-(1-Carbamimidoylpiperidin-4-yl)-4H-1,2,4-triazole-3,5-diyl)bis (3-fluoro-4,1-phenylene))bis(5,6-dihydropyridine-1(2H)-carboximidamide)] | 3.13 (≈ 4.98 µM) | 0.39 (≈ 0.62 µM) | 12.5 (≈ 19.9 µM) | > 100 | 3.13 (≈ 4.98 µM) | < 0.1 | > 100 |
| CC(C)n1c(-c2ccc(C3=CCN(C(=N)N)CC3)cc2F)nnc1-c1ccc(C2=CCN(C(=N)N)CC2)cc1F [Example 13, 4,4-(4,4-(4-Isopropyl-4H-1,2,4-triazole-3,5-diyl)bis(3-fluoro-4,1-phenylene))bis(5,6-dihydropyridine-1(2H)-carboximidamide)] | < 0.1 | 0.78 (≈ 1.43 µM) | 0.2 (≈ 0.367 µM) | 0.39 (≈ 0.715 µM) | 0.2 (≈ 0.367 µM) | 6.25 (≈ 11.5 µM) | 1.56 (≈ 2.86 µM) |
| CC(C)Cn1c(-c2ccc(C3=CCN(C(=N)N)CC3)cc2F)nnc1-c1ccc(C2=CCN(C(=N)N)CC2)cc1F [Example 14] | < 0.1 | < 0.1 | 0.39 (≈ 0.697 µM) | < 0.1 | < 0.1 | 6.25 (≈ 11.2 µM) | 1.56 (≈ 2.79 µM) |
| CN1CCC(n2c(-c3ccc(C4=CCN(C(=N)N)CC4)cc3F)nnc2-c2ccc(C3=CCN(C(=N)N)CC3)cc2F)CC1 [Example 15, 4,4′-(4,4′-(4-(1-Methylpiperidin-4-yl)-4H-1,2,4-triazole-3,5-diyl)bis(3-fluoro-4,1-phenylene))bis(5,6-dihydropyridine-1(2H)-carboximidamide)] | 3.13 (≈ 5.21 µM) | 0.78 (≈ 1.3 µM) | 25 (≈ 41.6 µM) | > 100 | 3.13 (≈ 5.21 µM) | < 0.1 | > 100 |

— patent US20240018121A1, “NOVEL HETEROAROMATIC COMPOUNDS EXHIBITING ANTIFUNGAL ACTIVITY AND THEIR METHOD OF USE” (FOX CHASE CHEMCIAL DIVERSITY CENTER, INC., priority 2020, published 2024)
